“And” between values parts separate entries of the source, which are not always exact repeats. Equal values may be shown once.
Settings: for vapor or sublimation pressure: Liquid, Closed cell (Static) method; for speed of sound: Gas, Cylindrical cavity resonance method

CC(C)C [2-methylpropane]
Settings | vapor or sublimation pressure
258.92 K | 91.82 kPa
264.24 K | 112.99 kPa
265.67 K | 119.32 kPa
267.2 K | 126.35 kPa
273 K | 156 kPa
273.15 K | 156.85 kPa
275.31 K | 169.22 kPa
278.94 K | 191.71 kPa
280 K | 198.68 kPa
281.24 K | 207.12 kPa
282.81 K | 218.08 kPa
284.02 K | 226.9 kPa
285.82 K | 240.51 kPa
287.25 K | 251.7 kPa
288.67 K | 263.24 kPa
290 K | 274.38 kPa
291.96 K | 291.5 kPa
291.99 K | 291.68 kPa
293.5 K | 305.47 kPa
294.79 K | 317.56 kPa
296.3 K | 332.18 kPa
299.97 K | 369.83 kPa
301.05 K | 381.52 kPa
302.76 K | 400.6 kPa
304.46 K | 420.14 kPa
305.97 K | 438.06 kPa and 438.12 kPa
307.39 K | 455.55 kPa
308.82 K | 473.64 kPa
310 K | 488.84 kPa
312.11 K | 516.99 kPa
314.51 K | 550.49 kPa
314.52 K | 550.72 kPa
316.61 K | 581.22 kPa
320 K | 633.44 kPa
322 K | 665.79 kPa
324.13 K | 701.6 kPa
326 K | 734.19 kPa and 734.22 kPa
326.58 K | 744.59 kPa
328 K | 770.36 kPa
328.63 K | 781.99 kPa
330 K | 807.67 kPa
332 K | 846.32 kPa
332.15 K | 849.38 kPa
334 K | 886.42 kPa
334.71 K | 900.88 kPa
338.87 K | 989.76 kPa
342 K | 1060.5 kPa
342.57 K | 1073.8 kPa
344 K | 1107.8 kPa
344.84 K | 1128.1 kPa
347.48 K | 1193.6 kPa
350 K | 1258.8 kPa
354.89 K | 1392.5 kPa
357.13 K | 1457.2 kPa
360 K | 1543.1 kPa
362.41 K | 1618.3 kPa
364.65 K | 1690.7 kPa
367.12 K | 1773.1 kPa
370 K | 1872.6 kPa
373.25 K | 1990.5 kPa
375.82 K | 2087.2 kPa
377.95 K | 2170.2 kPa
380 K | 2252.2 kPa
382.69 K | 2363.4 kPa
385.14 K | 2468.3 kPa
387.96 K | 2593.6 kPa
390 K | 2687.2 kPa
390.02 K | 2688.3 kPa
392.64 K | 2812.8 kPa
392.7 K | 2815.5 kPa
394.37 K | 2897.1 kPa
394.77 K | 2917.1 kPa
397.49 K | 3055 kPa
399.62 K | 3166.9 kPa
400 K | 3187.2 kPa
400.09 K | 3191.9 kPa
400.19 K | 3197.4 kPa
402.45 K | 3320.9 kPa
402.46 K | 3321.8 kPa
403.93 K | 3404.5 kPa
404.71 K | 3449.2 kPa
405 K | 3465.7 kPa
405.99 K | 3523.6 kPa

Settings | speed of sound [m/s]
270 K, 54.63 kPa | 203.09
270 K, 68.26 kPa | 202.24
270 K, 75.99 kPa | 201.75
270 K, 86.24 kPa | 201.09
270 K, 94.7 kPa | 200.54
270 K, 103.06 kPa | 200
270 K, 111.76 kPa | 199.42
280 K, 52.41 kPa | 206.99
280 K, 62.45 kPa | 206.43
280 K, 70.73 kPa | 205.97
280 K, 82.68 kPa | 205.28
280 K, 94.96 kPa | 204.58
280 K, 108.81 kPa | 203.77
280 K, 121.29 kPa | 203.03
280 K, 133.05 kPa | 202.32
280 K, 145.5 kPa | 201.57
290 K, 58.49 kPa | 210.38
290 K, 78.62 kPa | 209.35
290 K, 97.12 kPa | 208.38
290 K, 116.17 kPa | 207.38
290 K, 139.15 kPa | 206.14
290 K, 147.23 kPa | 205.68
290 K, 158.57 kPa | 205.07
290 K, 161.39 kPa | 204.9
290 K, 173.83 kPa | 204.22
290 K, 177.47 kPa | 204
290 K, 193.67 kPa | 203.09
300 K, 37.47 kPa | 214.93
300 K, 57.39 kPa | 214.01
300 K, 80.89 kPa | 212.92
300 K, 107.72 kPa | 211.65
300 K, 127.82 kPa | 210.67
300 K, 150.12 kPa | 209.58
300 K, 168.57 kPa | 208.67
300 K, 201.3 kPa | 207
300 K, 235.37 kPa | 205.23
310 K, 45.64 kPa | 218.03
310 K, 76.78 kPa | 216.71
310 K, 107.37 kPa | 215.4
310 K, 141.66 kPa | 213.88
310 K, 178.43 kPa | 212.23
310 K, 212.65 kPa | 210.65
310 K, 247.33 kPa | 209.01
310 K, 299.72 kPa | 206.46
320 K, 57.93 kPa | 220.96
320 K, 83.1 kPa | 219.97
320 K, 109.17 kPa | 218.94
320 K, 159.3 kPa | 216.91
320 K, 192.01 kPa | 215.56
320 K, 262.64 kPa | 212.56
320 K, 289.64 kPa | 211.37
320 K, 343.58 kPa | 208.94
320 K, 383.31 kPa | 207.1
330 K, 39.62 kPa | 224.99
330 K, 69.47 kPa | 223.92
330 K, 107.25 kPa | 222.55
330 K, 151.31 kPa | 220.92
330 K, 195.14 kPa | 219.27
330 K, 246.95 kPa | 217.27
330 K, 297.38 kPa | 215.27
330 K, 339.74 kPa | 213.55
330 K, 422.84 kPa | 210.06
330 K, 480.1 kPa | 207.54

Source: the NIST ThermoML archive (doi:10.1016/j.fluid.2014.09.017)
